Assay results reported in the supplement of paper PMC10307832.

What was measured:
Test in all cases: relative viability (nuclei count vs DMSO), 5 days (fraction); higher = more cells survive
Nelarabine + OSI-027 = compound: COc1nc(N)nc2c1ncn2[C@@H]1O[C@H](CO)[C@@H](O)[C@@H]1O [Nelarabine] + COc1cccc2cc(-c3nc([C@H]4CC[C@H](C(=O)O)CC4)n4ncnc(N)c34)[nH]c12 [OSI-027] (partner 0.5 µM)
How it was run: (§1)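 Relative viability divides the nuclei count in treated wells by that in vehicle wells. Lung cancer cell lines were seeded in 1536-well plates, dosed by pin tool the next day, and fixed and stained after 5 days in one step with final 0.05% Triton X-100, 1% formaldehyde and 1 ug/ml Hoechst. Dosing was a single drug or a fixed anchor-drug dose plus five library-drug doses (not always all listed) in √10 steps, and values are medians of duplicate plates imaged at 4×.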

Adavosertib + Dasatinib = compound: C=CCn1c(=O)c2cnc(Nc3ccc(N4CCN(C)CC4)cc3)nc2n1-c1cccc(C(C)(C)O)n1 [Adavosertib] + Cc1nc(Nc2ncc(C(=O)Nc3c(C)cccc3Cl)s2)cc(N2CCN(CCO)CC2)n1 [Dasatinib] (partner 0.075 µM)
How it was run: as §1

Nelarabine + Vorinostat = compound: COc1nc(N)nc2c1ncn2[C@@H]1O[C@H](CO)[C@@H](O)[C@@H]1O [Nelarabine] + O=C(CCCCCCC(=O)Nc1ccccc1)NO [Vorinostat] (partner 1 µM)
How it was run: as §1

Nelarabine + Alpelisib = compound: COc1nc(N)nc2c1ncn2[C@@H]1O[C@H](CO)[C@@H](O)[C@@H]1O [Nelarabine] + Cc1nc(NC(=O)N2CCC[C@H]2C(N)=O)sc1-c1ccnc(C(C)(C)C(F)(F)F)c1 [Alpelisib] (partner 2 µM)
How it was run: as §1

Cell Line | relative viability (Nelarabine + OSI-027; first compound 0.01 µM) | relative viability (Nelarabine + OSI-027; first compound 0.03162 µM) | relative viability (Nelarabine + OSI-027; first compound 0.1 µM) | relative viability (Nelarabine + OSI-027; first compound 0.3162 µM) | relative viability (Nelarabine + OSI-027; first compound 1 µM) | relative viability (Adavosertib + Dasatinib; first compound 0.01 µM) | relative viability (Adavosertib + Dasatinib; first compound 0.03162 µM) | relative viability (Adavosertib + Dasatinib; first compound 0.1 µM) | relative viability (Adavosertib + Dasatinib; first compound 0.3162 µM) | relative viability (Nelarabine + Vorinostat; first compound 0.01 µM) | relative viability (Nelarabine + Vorinostat; first compound 0.03162 µM) | relative viability (Nelarabine + Vorinostat; first compound 0.1 µM) | relative viability (Nelarabine + Vorinostat; first compound 0.3162 µM) | relative viability (Nelarabine + Vorinostat; first compound 1 µM) | relative viability (Nelarabine + Alpelisib; first compound 0.01 µM) | relative viability (Nelarabine + Alpelisib; first compound 0.03162 µM) | relative viability (Nelarabine + Alpelisib; first compound 0.1 µM) | relative viability (Nelarabine + Alpelisib; first compound 0.3162 µM) | relative viability (Nelarabine + Alpelisib; first compound 1 µM)
NCI-H2170 | 0.716 | 0.67 | 0.704 | 0.656 | 0.753 | 0.522 | 0.48 | 0.608 | 0.389 | 1.09 | 0.835 | 0.742 | 0.878 | 0.71 | 0.944 | 0.748 | 0.81 | 0.882 | 0.937
IA-LM | – | – | – | – | – | – | – | – | – | 1.11 | 1 | 0.854 | 1.11 | 0.884 | 0.928 | 0.957 | 0.789 | 0.871 | 0.826
NCI-H1563 | 0.847 | 0.722 | 0.785 | 0.739 | 0.863 | 0.462 | 0.432 | 0.437 | 0.466 | – | – | – | – | – | 0.956 | 0.858 | 0.886 | 1 | 0.919
SW 900 | 0.569 | 0.551 | 0.565 | 0.452 | 0.655 | – | 0.607 | 0.645 | 0.36 | 0.471 | 0.567 | 0.795 | 0.628 | 0.448 | – | – | – | – | –
ChaGo-K-1 | 0.676 | 0.444 | 0.663 | 0.758 | 0.589 | 0.641 | 0.602 | 0.56 | 0.535 | 0.972 | 0.645 | 0.723 | 0.741 | 0.771 | – | – | – | – | –
Calu-6 | – | – | – | – | – | – | – | – | – | – | – | – | – | – | 1.1 | – | 0.979 | 0.972 | 1.11
NCI-H1648 | 0.237 | 0.282 | 0.264 | 0.256 | 0.281 | – | – | – | – | – | 0.761 | – | 0.412 | 0.642 | – | – | – | – | –
EBC-1 | – | – | – | – | – | – | – | – | – | – | – | – | – | – | 0.86 | 0.829 | 0.941 | 0.87 | 0.951
A549 | – | – | – | – | – | – | – | – | – | – | – | – | – | – | 0.885 | 0.879 | 0.783 | 0.818 | 0.858
NCI-H2342 | 0.734 | 0.533 | 0.564 | 0.75 | 0.626 | 0.3 | 0.345 | 0.338 | 0.289 | 0.933 | 0.753 | 0.806 | 0.74 | 0.728 | – | – | – | – | –
HCC-44 | 0.568 | 0.484 | 0.607 | 0.518 | 0.52 | – | – | – | – | 1.11 | 1.02 | 1.05 | 1.01 | 1.07 | 0.888 | 0.876 | 0.74 | 0.871 | 0.831
NCI-H1650 | 0.713 | 0.619 | 0.458 | 0.767 | 0.61 | 0.306 | 0.293 | 0.305 | 0.216 | 0.61 | 0.53 | 0.524 | 0.549 | 0.681 | – | – | – | – | –
NCI-H1299 | – | – | – | – | – | – | – | – | – | – | – | – | – | – | 1.16 | 1.11 | 1.04 | 1.08 | 1.2
NCI-H522 | 0.758 | 0.76 | 0.713 | 0.722 | 0.687 | 0.83 | 0.749 | 0.944 | 0.739 | 1.02 | 0.857 | 0.683 | 0.867 | 0.934 | – | – | – | – | –
